Assay results published in patent US20260217670A1, “CRYSTAL FORM OF BAXDROSTAT, AND PREPARATION METHOD THEREFOR AND USE THEREOF” (CRYSTAL PHARMACEUTICAL (SUZHOU) CO., LTD., priority 2023, published 2026).

Experiments:
Format in all cases: physicochemical
[1] = Storage stability of Form CSI, purity by HPLC and crystalline form by XRPD
Method: (§1) XRPD patterns in the present disclosure were acquired by a Bruker D8 DISCOVER X-ray powder diffractometer. The parameters of the X-ray powder diffraction method of the present disclosure are as follows: • X-Ray source: Cu, Kα • Kα1 (Å): 1.54060; Kα2 (Å): 1.54439 • Kα2/Kα1 intensity ratio: 0.50 • Voltage: 40 kV • Current: 40 mA • Scan range (20): from 4.0 degree to 40.0 degree
A certain amount of Form CSI prepared by the present disclosure was stored under conditions of 25° C./60% RH, 40° C./75% RH and 60° C./75% RH. The purity and crystalline form were checked by HPLC and XRPD. The results are listed in Table 3, and the XRPD overlay is substantially as depicted in FIG. 7 and FIG. 8. […] Under 60° C./75% RH, it remains stable for at least 1 month with its purity also essentially unchanged, indicating very good stability even under stress conditions.

[2] = Wet ball milling (grinding stability); conditions: for Solid form after grinding: wet ball milling, 1800 rpm for 10 min
Method: as §1
A certain amount of Form CSI solid was placed in a centrifuge tube, and about 10 μL of corresponding solvent was added inside, along with a 5 mm grinding ball. The centrifuge tube containing the sample was installed on the GT300 vibration ball mill and subjected to wet ball milling at 1800 rpm for 10 min.

[3] = DVS weight gain at various humidity (hygroscopicity / humidity stability)
Method: Purge gas: N2DVS data in the present disclosure were measured via an SMS (Surface Measurement Systems Ltd.) intrinsic DVS instrument. The instrument control software is DVS-Intrinsic control software. Typical parameters for DVS test are as follows: • Temperature: 25° C. • Gas and flow rate: N2, 200 mL/min • RH range: 0% RH to 95% RH
A certain amount of Form CSI was used to test the weight gain at various humidity by a DVS instrument. The weight gains at each relative humidity were recorded in a cycle of 60% RH-95% RH-0% RH-95% RH-0% RH. […] The XRPD overlay before and after DVS test is substantially as depicted in FIG. 11.

[4] = 25° C./60% RH, Open package, 6 months
[5] = 25° C./60% RH, Sealed package, 6 months
[6] = 40° C./75% RH, Open package, 6 months
[7] = 40° C./75% RH, Sealed package, 6 months
[8] = 60° C./75% RH, Open package, 1 month
[9] = 60° C./75% RH, Sealed package, 1 month
[10] = wet ball milling at 1800 rpm for 10 min, water or ethanol

- Time Form CSI remains stable with purity essentially unchanged ([1]; 25° C./60% RH): at least 6 months
- Purity [1, 4]: 99.27%
- Solid form [1, 4]: Form CSI
- Purity [1, 5]: 99.22%
- Solid form [1, 5]: Form CSI
- Time Form CSI remains stable with purity essentially unchanged ([1]; 40° C./75% RH): at least 6 months
- Purity [1, 6]: 99.26%
- Solid form [1, 6]: Form CSI
- Purity [1, 7]: 99.21%
- Solid form [1, 7]: Form CSI
- Time Form CSI remains stable with purity essentially unchanged ([1]; 60° C./75% RH): at least 1 month
- Purity [1, 8]: 99.26%
- Solid form [1, 8]: Form CSI
- Purity [1, 9]: 99.24%
- Solid form [1, 9]: Form CSI
- Purity ([1]; Initial): 99.23%
- Solid form ([1]; Initial): Form CSI
- Crystalline form before and after wet ball milling [2, 10]: remains unchanged
- Crystallinity after wet ball milling [2, 10]: no significant decrease
- Solid form after grinding ([2]; Ethanol): Form CSI
- Solid form after grinding ([2]; Water): Form CSI
- Form change before and after DVS test (XRPD) ([3]; cycle of 60% RH-95% RH-0% RH-95% RH-0% RH): No form change
- Weight gain ([3]; from 60% RH to 80% RH, DVS, 25° C.): 0.34%
SMILES: CCC(=O)N[C@@H]1CCCc2c(-c3ccc4c(c3)CCC(=O)N4C)cncc21 [Form CSI, (+)-(R)—N-(4-(1-methyl-2-oxo-1,2,3,4-tetrahydroquinolin-6-yl)-5,6,7,8-tetrahydroisoquinolin-8-yl) propionamide]
